Reference: patent US20260234173A1, “STRUCTURED MOLECULAR VECTORS FOR ANTI-INFLAMMATORY COMPOUNDS AND USES THEREOF” (Universite Claude Bernard Lyon 1, priority 2019, published 2026)

Assays:
[1] = test system: CA1 pyramidal neurons in hippocampal slices from rats subjected to Pilo-SE; assay: Hippocampal LTP in slices from Pilo-SE rats, compound perfused in the bath (ex vivo); type: cell-based, rat; details: slices 1-2 weeks post Pilo-SE
Experimental: In this experiment we used male Sprague-Dawley rats (ENVIGO, Netherlands). Pups were received at 14 day-old (postnatal day 14 (P14)) with their foster mother, and were maintained in groups of 10 in plastic cages (405 mm×255 mm×197 mm) with free access to food and water. All animal procedures are in accordance with the guidelines of the Animal Care and Use Committee of the University Claude Bernard Lyon 1.
All injected solutions were prepared in sterile saline (0.9% w/v). At weaning (postnatal day 20 (P20)), Sprague-Dawley male rat pups were first injected i.p. with lithium chloride (127 mg/Kg; Sigma-Aldrich), to decrease the dose of pilocarpine needed to trigger Status Epilepticus (SE). Scopolamine methylnitrate (1 mg/Kg; Sigma-Aldrich) was injected s.c. 18 h later, to alleviate peripheral cholinergic adverse side effects. Pilocarpine hydrochloride (25 mg/Kg; Sigma-Aldrich) was injected i.p. 30 min later, to induce SE. […] The rats were placed on a heated pad, under continuous observation, until they recovered from sedation. Following recovery, the rats were returned to the nursing mother until P23. Control rats only received saline injections. All rats were then housed in groups of 10 and weighed daily, during the 5 following days, to control for food intake, and then twice weekly until the end of experiment (three weeks post SE).
At P28-38, Sprague-Dawley rats were anesthetized with isoflurane, the forebrain was removed and placed in ice cold standard artificial cerebrospinal fluid (ACSF), consisting of (in mM): 124 NaCl, 5 KCl, 1.25 Na2HPO4, 2 MgSO4, 2 CaCl2), 26 NaHCO3, supplemented with 10 D-glucose, and bubbled with 95% O2 and 5% CO2. Hippocampal transverse slices were cut into 350 μm thick sections, using a vibratome (Leica VT1000S), and incubated in ACSF at room temperature for at least 1 h, before the transfer to the recording chamber. The ACSF used for perfusion was supplemented with picrotoxin (100 μM; Sigma-Aldrich), to block GABA-A receptors and therefore to facilitate the induction of NMDA receptors-dependent Long-Term Potentiation (LTP). CA1 pyramidal cells were visualized with a Zeiss Axioskop 2, equipped with a X40 objective, using infrared video microscopy and differential interference contrast optics. Whole-cell recordings from pyramidal neurons in the CA1 layer were obtained with patch electrodes, which were filled with a solution containing (in mM): 120 potassium gluconate, 20 KCl, 0.2 EGTA, 2 MgCl2, 10 HEPES, 4 Na2ATP, 0.3 Tris-GTP and 14 mM phosphocreatine (pH 7.3, adjusted with KOH). Drugs were applied in the bath of the hippocampal slices. Electrode resistances ranged from 3-5 MΩ. Series resistance was continually monitored, and experiments were discarded if it changed by >20%.
Capillary glass pipettes filled with ACSF and connected to an Iso-Flex stimulus isolation unit (A.M.P.I.) were placed in stratum radiatum, to evoke excitatory postsynaptic potentials (EPSPs) in CA1 pyramidal neurons. Cells were held at −70 mV to record EPSPs, and the stimulation strength was set to evoke EPSPs between 5-8 mV. LTP was induced by the theta burst pairing (TBP) protocol, which consisted of EPSPs paired with single back-propagating action potentials (b-APs), timed so that the b-AP (~15 ms delay) occurred at the peak of the EPSPs, as measured in the soma. A single burst contained five pairs delivered at 100 Hz and ten bursts were delivered at 5 Hz per sweep. Three sweeps were delivered at 10 s intervals for a total of 30 bursts (150 b-AP-EPSP pairs). […]

[2] = test system: LPS-induced neuroinflammation (hippocampus and neocortex); assay: LPS-induced neuroinflammation in vivo in rats (RT-qPCR, Neuroinflammation Index); set-up: species or system rat; details: 6 h post-LPS

CCC=CCC=CCC=CCC=CCC=CCC=CCCC(=O)NCCP(=O)(O)O [synaptamide phosphonate]
LTP magnitude (EPSP amplitude, % of baseline) ([1]; bath application 100 nM): 132.2±5.01% | LTP magnitude (EPSP amplitude, % of baseline) ([1]; bath application 400 nM): 159.9±10.7% | LPS-mediated induction of transcripts encoding neuroinflammatory markers ([2]; 2 mg/Kg synaptamide equivalent i.p. one minute after LPS 1 mg/Kg, 21-day-old rats): partially prevent | reduction of the Neuroinflammatory Index measured both in the hippocampus and the neocortex ([2]; 2 mg/Kg synaptamide equivalent i.p. one minute after LPS): ~ 70%
